Biological target: fully phosphorylated, active Mouse ERK2 protein (Mus musculus (Mouse), UniProt P63085)
Assay: Active ERK2 (aERK) IMAP assay
Format: biochemical
Settings: IMAP fluorescence polarization; 30 μM ATP; 30 minute pre-incubation

Chain of fully phosphorylated, active Mouse ERK2 protein (P63085 whole entry): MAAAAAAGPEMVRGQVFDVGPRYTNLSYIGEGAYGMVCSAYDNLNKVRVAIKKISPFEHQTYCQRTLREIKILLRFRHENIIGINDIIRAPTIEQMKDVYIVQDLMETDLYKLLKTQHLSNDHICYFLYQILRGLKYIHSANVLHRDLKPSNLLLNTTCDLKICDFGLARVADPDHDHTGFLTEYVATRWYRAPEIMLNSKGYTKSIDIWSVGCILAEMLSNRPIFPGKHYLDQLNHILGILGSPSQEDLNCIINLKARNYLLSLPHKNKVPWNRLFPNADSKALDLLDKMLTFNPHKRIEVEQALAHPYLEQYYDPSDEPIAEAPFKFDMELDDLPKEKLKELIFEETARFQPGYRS

IC50 [nM] | SMILES
114 | Cc1cc(-c2n[nH]c3ccc(C(=O)NC4CCCC(Oc5ccccc5F)C4)cc23)ccn1 (centres unmarked) [compound 33, N-[3-(2-fluorophenoxy)cyclohexyl]-3-(2-methyl-4-pyridinyl)-1H-indazole-5-carboxamide]
301 | CC(C)Oc1cc(-c2n[nH]c3ccc(C(=O)N[C@@H]4CCC[C@](O)(Cc5ccccc5F)C4)cc23)ccn1 [compound 16, N-[3(S)-[(2-fluorophenyl)methyl]-3-hydroxy-1(R)-cyclohexyl]-3-[2-(1-methylethoxy)-4-pyridinyl]-1H-indazole-5-carboxamide]
11.2 | Cc1cc(-c2n[nH]c3ccc(C(=O)NC4CCCC(Oc5cccc(F)c5)(C(N)=O)C4)cc23)ccn1 (centres unmarked) [compound 42, N-[3-(aminocarbonyl)-3-(3-fluorophenoxy)cyclohexyl]-3-(2-methyl-4-pyridinyl)-1H-indazole-5-carboxamide]
12.1 | Cn1cc2cc(-c3n[nH]c4ccc(C(=O)N[C@@H]5CCC[C@](O)(Cc6c(F)cccc6F)C5)cc34)ccc2n1 [compound 19, N-[3(S)-[(2,6-difluorophenyl)methyl]-3-hydroxy-1(R)-cyclohexyl]-3-(2-methyl-2H-indazol-5-yl)-1H-indazole-5-carboxamide]
29.3 | Cn1cc2cc(-c3n[nH]c4ccc(C(=O)NC5CCCC(Cn6ccnc6)C5)cc34)ccc2n1 (centres unmarked) [compound 108, N-[3-(1H-imidazol-1-ylmethyl)cyclohexyl]-3-(2-methyl-2H-indazol-5-yl)-1H-indazole-5-carboxamide]
1000 | CCOC(=O)C1(Cc2ccccc2F)CCCC(NC(=O)c2ccc3[nH]nc(-c4ccnc(C)c4)c3c2)C1 (mixture of isomers) [compound 128, ethyl cis/trans-1-[(2-fluorophenyl)methyl]-3-[[[3-(2-methyl-4-pyridinyl)-1H-indazol-5-yl]carbonyl]amino]cyclo-hexanecarboxylate]
530 | Cc1cc(-c2n[nH]c3ccc(C(=O)NC4CCCC(Cn5ncc6cnccc65)C4)cc23)ccn1 (centres unmarked) [compound 119, 3-(2-methyl-4-pyridinyl)-N-[3-(1H-pyrazolo[4,3-c]pyridin-1-ylmethyl)cyclohexyl]-1H-indazole-5-carboxamide]
469 | Cc1cc(-c2n[nH]c3ccc(C(=O)NC4CCCC(Oc5c(C)cccc5C)C4)cc23)ccn1 (centres unmarked) [compound 31, N-[3-(2,6-dimethylphenoxy)cyclohexyl]-3-(2-methyl-4-pyridinyl)-1H-indazole-5-carboxamide]
56.6 | Cc1cc(-c2n[nH]c3ccc(C(=O)NC4CCCC(Cn5ncc6cccc(F)c65)C4)cc23)ccn1 (mixture of isomers) [compound 126, N-[cis/trans-3-[(7-fluoro-1H-indazol-1-yl)methyl]cyclohexyl]-3-(2-methyl-4-pyridinyl)-1H-indazole-5-carboxamide]
86.5 | Cc1cc(-c2n[nH]c3ccc(C(=O)NC4CCCC(Cn5cnc6ncccc65)C4)cc23)ccn1 (centres unmarked) [compound 117, N-[3-(1H-imidazo[4,5-b]pyridin-1-ylmethyl)cyclohexyl]-3-(2-methyl-4-pyridinyl)-1H-indazole-5-carboxamide]
74.6 | O=C(NC1CCCC(Cn2cccn2)C1)c1ccc2[nH]nc(-c3ccc4nccn4c3)c2c1 (centres unmarked) [compound 110, 3-imidazo[1,2-a]pyridin-6-yl-N-[3-(1H-pyrazol-1-ylmethyl)cyclohexyl]-1H-indazole-5-carboxamide]

The remaining lines, values behind:

SMILES | IC50 [nM]
Cc1cc(-c2n[nH]c3ccc(C(=O)NC4CCCC(O)(Cc5c(F)cccc5F)C4)cc23)ccn1 (single isomer, unassigned) [compound 5, N-[3-[(2,6-difluorophenyl)methyl]-3-hydroxycyclohexyl]-3-(2-methyl-4-pyridinyl)-1H-indazole-5-carboxamide] | 1000
Cc1cc(-c2n[nH]c3ccc(C(=O)NC4CCCC(O)(Cc5ccccc5F)C4)cc23)ccn1 (single isomer, unassigned) [compound 3, N-[3-[(2-fluorophenyl)methyl]-3-hydroxycyclo-hexyl]-3-(2-methyl-4-pyridinyl)-1H-indazole-5-carboxamide] | 7.6
Cc1cc(-c2n[nH]c3ccc(C(=O)NC4CCCC(Cn5ncc6ccc(C(F)(F)F)cc65)C4)cc23)ccn1 (mixture of isomers) [compound 125, 3-(2-methyl-4-pyridinyl)-N-[cis/trans-3-[[6-(trifluoromethyl)-1H-indazol-1-yl]methyl]cyclohexyl]-1H-indazole-5-carboxamide] | 1000
Cc1cc(-c2n[nH]c3ccc(C(=O)NC4CCCC(O)(Cc5ccccc5F)C4)cc23)ccn1 (single isomer, unassigned) [compound 4, N-[3-[(2-fluorophenyl)methyl]-3-hydroxycyclo-hexyl]-3-(2-methyl-4-pyridinyl)-1H-indazole-5-carboxamide] | 128
O=C(N[C@H]1CCC[C@@](O)(Cc2ccccc2F)C1)c1ccc2[nH]nc(-c3ccc4nccn4c3)c2c1 (relative stereo) [compound 9, N-[trans-3-[(2-fluorophenyl)methyl]-3-hydroxycyclohexyl]-3-imidazo[1,2-a]pyridin-6-yl-1H-indazole-5-carboxamide] | 48.7
Cc1cc(-c2n[nH]c3ccc(C(=O)NC4CCCC(O)(C(O)c5ccccc5)C4)cc23)ccn1 (centres unmarked) [compound 49, N-[3-hydroxy-3-(hydroxyphenylmethyl)cyclohex-yl]-3-(2-methyl-4-pyridinyl)-1H-indazole-5-carboxamide (diasterimer 1)] | 25
Cc1cc(-c2n[nH]c3ccc(C(=O)N[C@H]4CCC[C@@](O)(Cn5c(C)nc6ccccc65)C4)cc23)ccn1 [compound 69, N-[trans-3-hydroxy-3-[(2-methyl-1H-benzimidazol-1-yl)methyl]cyclohexyl]-3-(2-methyl-4-pyridinyl)-H-indazole-5-carboxamide] | 53
Cc1cc(-c2n[nH]c3ccc(C(=O)N[C@@H]4CCC[C@](O)(Cn5cc6ccccc6n5)C4)cc23)ccn1 (relative stereo) [compound 90, N-[trans-3-hydroxy-3-(2H-indazol-2-ylmethyl)cyclohexyl]-3-(2-methyl-4-pyridinyl)-1H-indazole-5-carboxamide] | 27.4
Cc1cc(-c2n[nH]c3ccc(C(=O)NC4CCC(CO)(Cc5ccccc5F)C4)cc23)ccn1 (centres unmarked) [compound 139, N-[3-[(2-fluorophenyl)methyl]-3-(hydroxymethyl)cyclopentyl]-3-(2-methyl-4-pyridinyl)-1H-indazole-5-carboxamide] | 64.4
Cc1cc(-c2n[nH]c3ccc(C(=O)NN4CCCC(CO)(Cc5ccccc5F)C4)cc23)ccn1 (centres unmarked) [compound 151, N-[3-[(2-fluorophenyl)methyl]-3-(hydroxymethyl)-1-piperidinyl]-3-(2-methyl-4-pyridinyl)-1H-indazole-5-carboxamide] | 193
O=C(NC1CCCC(O)(Cc2ccccc2F)C1)c1ccc2[nH]nc(-c3ccc4ncsc4c3)c2c1 (single isomer, unassigned) [compound 11, 3-(6-benzothiazolyl)-N-[3-[(2-fluorophenyl)methyl]-3-hydroxycyclohexyl]-1H-indazole-5-carboxamide] | 264
Cc1cc(-c2n[nH]c3ccc(C(=O)NC4CCCC(O)(C(O)c5ccccc5)C4)cc23)ccn1 (centres unmarked) [compound 50, N-[3-hydroxy-3-(hydroxyphenylmethyl)cyclohex-yl]-3-(2-methyl-4-pyridinyl)-1H-indazole-5-carboxamide (diasterimer 2)] | 47.5

From patent US9351965B2, “Indazole derivatives useful as ERK inhibitors” (Merck Sharp & Dohme Corp., priority 2010, dated 2016)
